Laboratory results as given in patent US20250101034A1, “COMPOSITIONS USEFUL FOR MODULATING SPLICING” (SKYHAWK THERAPEUTICS, INC., priority 2021, published 2025).

Key:
[1] = tested on: total ATXN3 protein; assay: ATXN3 total protein assay (MSD, SK-N-MC cells); type: cell-based, Human; settings: 48 hours incubation, read-out: ATXN3 Potency - Protein IC50
Protocol: Human neuroblastoma SK-N-MC cells were seeded at 10,000 cells/well in 384 well plates one day prior to compound treatment. The concentrations of compounds were tested at appropriate doses ranging from 30 μM to 0.6 nM. After incubation for 48 hours, the cells were lysed with 25 μL of lysis buffer containing protease inhibitors, and total ATXN3 protein levels were assessed by Mesoscale Discovery (MSD) assay developed with one pair of anti-ATXN3 antibodies. The capture and detect antibodies were raised in mouse and rabbit respectively. Anti-rabbit MSD-ST antibody was used for secondary antibody.
ATXN3 recombinant protein was used for standards. The readouts were captured with 35 μL of MSD read buffer and multi-array 384-well high binding plates.

[2] = tested on: ATXN3 transcripts containing exon 4 (E4E5); assay: ATXN3 quantitative splicing assay (qPCR, SK-N-MC cells); type: cell-based; settings: Homo sapiens, 24 h treatment, qPCR E4E5 primers/probe, read-out: ATXN3 Potency - Splicing E4E5 IC50
Protocol: Human neuroblastoma SK-N-MC cells were plated in 384-well plates at 20,000 cells/well. Twenty-four hours after plating, cells were treated with compounds for 24 h at appropriate concentrations ranging from 30 μM to 0.6 nM (0.3% DMSO). Treated cells were lysed in 15 μL of lysis buffer, and cDNA was synthesized using the Fast Advanced Cells-to-Ct kit. Two μL of each cDNA was used in qPCR reactions to confirm the exon 4 skipped transcripts of ATXN3. A second set of primers/probe E4E5 was used to detect the transcripts containing exon 4. The third set of primers/probe E8E9 was used to detect total gene level of ATXN3. The qPCR reactions were prepared in 384-well plates in 10 μL volume, using TaqMan™ Fast Advanced Master Mix with primers and probes shown in the table below. Reactions were run in a Quant Studio 6 qPCR instrument with default settings.
The primers and probes are listed below in Table 4.

Compound `Cc1c(C[C@@H](N)CCO)sc2c(NCc3ccco3)cnnc12` [Compound 29, (3S)-3-amino-4-(4-{[(furan-2-yl)methyl]amino}-7-methylthieno[3,2-c]pyridazin-6-yl)butan-1-ol] has an IC50 [1] of 0.501 to 5 µM and an IC50 [2] of 0.501 to 5 µM.

With `Cc1c(C[C@H](C)N)sc2c(NCc3ccsc3F)cnnc12` [Compound 17, 6-[(2S)-2-aminopropyl]-N-[(2-fluorothiophen-3-y1)methyl]-7-methylthieno[3,2-c]pyridazin-4-amine] the IC50 [1] was 10 to 40 µM and the IC50 [2] was 5 to 10 µM.

For `Brc1csc2c(NCc3cccs3)cnnc12` [Compound 63, 7-bromo-N-(thiophen-2-ylmethyl)thieno[3,2-c]pyridazin-4-amine], the IC50 [1] was 10 to 40 µM and the IC50 [2] was 10 to 40 µM.

In the case of `Cc1csc2c(NCc3nccs3)cnnc12` [Compound 12, 7-methyl-N-[(1,3-thiazol-2-yl)methyl]thieno[3,2-c]pyridazin-4-amine], the IC50 [1] is reported as 10 to 40 µM and the IC50 [2] is reported as 10 to 40 µM.

`CC(=O)CCc1sc2c(NCc3cccs3)cnnc2c1C` [Compound 88, 4-{7-methyl-4-[(thiophen-2-ylmethyl)amino]thieno[3,2-c]pyridazin-6-yl}butan-2-one] was tested, and the IC50 [1] was 10 to 40 µM.

In the case of `Cc1nnc2c(C)c(C[C@H](C)N)sc2c1NCc1cccs1` [Compound 19, 6-[(2S)-2-aminopropyl]-3,7-dimethyl-N-[(thiophen-2-yl)methyl]thieno[3,2-c]pyridazin-4-amine], the IC50 [1] is reported as 10 to 40 µM and the IC50 [2] is reported as 10 to 40 µM.

With `Cc1c(CCN)sc2c(NCc3ccco3)cnnc12` [Compound 21, 6-(2-aminoethyl)-N-[(furan-2-yl)methyl]-7-methylthieno[3,2-c]pyridazin-4-amine] the IC50 [1] was 10 to 40 µM and the IC50 [2] was 10 to 40 µM.

`C[C@H](N)Cc1sc2c(NCc3ccco3)cnnc2c1Br` [Compound 100, 6-[(2S)-2-aminopropyl]-7-bromo-N-[(furan-2-y1)methyl]thieno[3,2-c]pyridazin-4-amine] gave an IC50 [1] of 0.101 to 0.5 µM and an IC50 [2] of 0.101 to 0.5 µM.

Work on `Cc1c(CC(C)CN)sc2c(NCc3cccs3)cnnc12` (stereo not drawn) [Compound 104, 6-(3-amino-2-methylpropyl)-7-methyl-N-[(thiophen-2-yl)methyl]thieno[3,2-c]pyridazin-4-amine] yielded an IC50 [1] of 10 to 40 µM and an IC50 [2] of 10 to 40 µM.

`Cc1c(C[C@@H](N)C[C@@H]2CC2(F)F)sc2c(NCc3cccs3)cnnc12` [Compound 128, 6-[(2S)-2-amino-3-[(1R)-2,2-difluorocyclopropyl]propyl]-7-methyl-N-(thiophen-2-ylmethyl)thieno[3,2-c]pyridazin-4-amine] gave an IC50 [1] of 10 to 40 µM and an IC50 [2] of 10 to 40 µM.

Work on `Clc1csc2c(NCc3cccs3)cnnc12` [Compound 67, 7-chloro-N-[(thiophen-2-yl)methyl]thieno[3,2-c]pyridazin-4-amine] yielded an IC50 [1] of 10 to 40 µM and an IC50 [2] of 10 to 40 µM.

With `Cc1c(C[C@@H](N)CCF)sc2c(NCc3ccco3)cnnc12` [Compound 31, 6-[(2S)-2-amino-4-fluorobutyl]-N-[(furan-2-yl)methyl]-7-methylthieno[3,2-c]pyridazin-4-amine] the IC50 [1] was 0.501 to 5 µM and the IC50 [2] was 0.501 to 5 µM.

Work on `Cc1c(CC(N)CC2(F)CC2)sc2c(NCc3cccs3)cnnc12` (stereo not drawn) [Compound 117, 6-[2-amino-3-(1-fluorocyclopropyl)propyl]-7-methyl-N-[(thiophen-2-yl)methyl]thieno[3,2-c]pyridazin-4-amine] yielded an IC50 [1] of 5 to 10 µM and an IC50 [2] of 5 to 10 µM.

For `Cc1c(C(F)(F)[C@H](C)N)sc2c(NCc3cccs3)cnnc12` [Compound 125, 6-[(2S)-2-amino-1,1-difluoropropyl]-7-methyl-N-(thiophen-2-ylmethyl)thieno[3,2-c]pyridazin-4-amine], the IC50 [1] was 0.501 to 5 µM and the IC50 [2] was 0.501 to 5 µM.

`CC#Cc1c(C[C@H](C)N)sc2c(NCc3cccs3)cnnc12` [Compound 107, 6-[(2S)-2-aminopropyl]-7-(prop-1-yn-1-yl)-N-[(thiophen-2-yl)methyl]thieno[3,2-c]pyridazin-4-amine] showed an IC50 [1] of 0.101 to 0.5 µM and an IC50 [2] of 0.101 to 0.5 µM.

In the case of `C[C@H](N)Cc1sc2c(NCc3cccs3)cnnc2c1C#N` [Compound 24, (S)-6-(2-aminopropyl)-4-((thiophen-2-ylmethyl)amino)thieno[3,2-c]pyridazine-7-carbonitrile], the IC50 [1] is reported as 0.501 to 5 µM and the IC50 [2] is reported as 0.501 to 5 µM.

`N[C@@H](CO)Cc1sc2c(NCc3ccco3)cnnc2c1Cl` [Compound 96, (2R)-2-amino-3-(7-chloro-4-{[(furan-2-yl)methyl]amino}thieno[3,2-c]pyridazin-6-yl)propan-1-ol] was tested, and the IC50 [1] was 0.101 to 0.5 µM and the IC50 [2] was 0.101 to 0.5 µM.

`Cc1c(C[C@@H](N)CC(F)(F)F)sc2c(NCc3cccs3)cnnc12` [Compound 50, 6-[(2S)-2-amino-4,4,4-trifluorobutyl]-7-methyl-N-[(thiophen-2-yl)methyl]thieno[3,2-c]pyridazin-4-amine] was tested, and the IC50 [1] was 0.501 to 5 µM and the IC50 [2] was 0.501 to 5 µM.

For `Cc1c(C[C@H](C)N)sc2c(NCc3sccc3F)cnnc12` [Compound 10, 6-[(2S)-2-aminopropyl]-N-[(3-fluorothiophen-2-yl)methyl]-7-methylthieno[3,2-c]pyridazin-4-amine], the IC50 [1] was 0.501 to 5 µM and the IC50 [2] was 0.501 to 5 µM.

Work on `CSC[C@H](N)Cc1sc2c(NCc3cccs3)cnnc2c1C` [Compound 58, 6-[(2R)-2-amino-3-(methylsulfanyl)propyl]-7-methyl-N-(thiophen-2-ylmethyl)thieno[3,2-c]pyridazin-4-amine] yielded an IC50 [1] of 0.501 to 5 µM and an IC50 [2] of 0.501 to 5 µM.

Compound `Cc1c(C[C@H](C)N)sc2c(NCc3cccs3)c(Br)nnc12` [Compound 66, 6-[(2S)-2-aminopropyl]-3-bromo-7-methyl-N-[(thiophen-2-yl)methyl]thieno[3,2-c]pyridazin-4-amine] has an IC50 [1] of 10 to 40 µM and an IC50 [2] of 10 to 40 µM.

`Cc1c(C[C@H](C)N)sc2c(NCc3cnco3)cnnc12` [Compound 46, 6-[(2S)-2-aminopropyl]-7-methyl-N-[(1,3-oxazol-5-yl)methyl]thieno[3,2-c]pyridazin-4-amine] was tested, and the IC50 [1] was 10 to 40 µM and the IC50 [2] was 10 to 40 µM.

In the case of `Cc1c(C[C@H](C)N)sc2c(NCc3cncs3)cnnc12` [Compound 44, 6-[(2S)-2-aminopropyl]-7-methyl-N-[(1,3-thiazol-5-yl)methyl]thieno[3,2-c]pyridazin-4-amine], the IC50 [1] is reported as 10 to 40 µM and the IC50 [2] is reported as 10 to 40 µM.

With `Cc1c(C[C@H](C)N)sc2c(NCc3ccc(F)s3)cnnc12` [Compound 16, 6-[(2S)-2-aminopropyl]-N-[(5-fluorothiophen-2-yl)methyl]-7-methylthieno[3,2-c]pyridazin-4-amine] the IC50 [1] was 0.501 to 5 µM and the IC50 [2] was 0.501 to 5 µM.

With `Cc1c(C[C@H](C)N)sc2c(NCc3ccco3)cnnc12` [Compound 2, 6-[(2S)-2-aminopropyl]-N-(furan-2-ylmethyl)-7-methylthieno[3,2-c]pyridazin-4-amine] the IC50 [1] was 0.501 to 5 µM and the IC50 [2] was 0.501 to 5 µM.

Compound `Cc1c(C[C@@H](N)CC#N)sc2c(NCc3ccco3)cnnc12` [Compound 38, (3S)-3-amino-4-(4-{[(furan-2-yl)methyl]amino}-7-methylthieno[3,2-c]pyridazin-6-yl)butanenitrile] has an IC50 [1] of 5 to 10 µM and an IC50 [2] of 5 to 10 µM.

With `Cc1c(C[C@@H](N)CO)sc2c(NCc3sccc3F)cnnc12` [Compound 9, (2R)-2-amino-3-(4-{[(3-fluorothiophen-2-yl)methyl]amino}-7-methylthieno[3,2-c]pyridazin-6-yl)propan-1-ol] the IC50 [1] was 10 to 40 µM and the IC50 [2] was 10 to 40 µM.

Compound `Cc1c(C[C@H](C)N)sc2c(NCc3ccsc3)cnnc12` [Compound 8, 6-[(2S)-2-aminopropyl]-7-methyl-N-[(thiophen-3-yl)methyl]thieno[3,2-c]pyridazin-4-amine] has an IC50 [1] of 0.501 to 5 µM and an IC50 [2] of 0.501 to 5 µM.

With `Cc1c(C[C@@H](N)CC2CC2)sc2c(NCc3cccs3)cnnc12` [Compound 68, 6-[(2S)-2-amino-3-cyclopropylpropyl]-7-methyl-N-[(thiophen-2-yl)methyl]thieno[3,2-c]pyridazin-4-amine] the IC50 [1] was 0.501 to 5 µM and the IC50 [2] was 0.501 to 5 µM.

Work on `Cc1c([C@@H](C)[C@H](C)N)sc2c(NCc3cccs3)cnnc12` [Compound 25] yielded an IC50 [1] of 10 to 40 µM and an IC50 [2] of 10 to 40 µM.

`Cc1csc(CNc2cnnc3c(C)c(C[C@H](C)N)sc23)c1` [Compound 79, 6-[(2S)-2-aminopropyl]-7-methyl-N-[(4-methylthiophen-2-yl)methyl]thieno[3,2-c]pyridazin-4-amine] showed an IC50 [1] of 10 to 40 µM.

For `Cc1ccc(CNc2cnnc3c(C)c(C[C@H](C)N)sc23)s1` [Compound 77, 6-[(2S)-2-aminopropyl]-7-methyl-N-[(5-methylthiophen-2-yl)methyl]thieno[3,2-c]pyridazin-4-amine], the IC50 [1] was 10 to 40 µM.

`Cc1c(C[C@@H]2CCCN2)sc2c(NCc3cccs3)cnnc12` [Compound 70, 7-methyl-6-{[(2S)-pyrrolidin-2-yl]methyl}-N-[(thiophen-2-yl)methyl]thieno[3,2-c]pyridazin-4-amine] showed an IC50 [1] of 10 to 40 µM.

`Cc1ccsc1CNc1cnnc2c(C)c(C[C@H](C)N)sc12` [Compound 78, 6-[(2S)-2-aminopropyl]-7-methyl-N-[(3-methylthiophen-2-yl)methyl]thieno[3,2-c]pyridazin-4-amine] was tested, and the IC50 [1] was 10 to 40 µM.
